In patent EP4786487A1, “PEPTIDE” (Peptidream Inc, priority 2023, dated 2025):
Positions of bridges follow the written chain, without caps; N, C: chain ends. Non-standard residues stand in square brackets, D forms with d. Residues, ends and D or L forms follow the SMILES beside them. *: point of attachment. Phe(4-(4-pyridyl)) = N[C@@H](Cc1ccc(-c2ccncc2)cc1)C(=O)O; Phe(3-OCH2COOH) = N[C@@H](Cc1cccc(OCC(=O)O)c1)C(=O)O; Phe(4-COOH) = N[C@@H](Cc1ccc(C(=O)O)cc1)C(=O)O; Trp(7-aza) = N[C@@H](Cc1c[nH]c2ncccc12)C(=O)O; Bip = N[C@@H](Cc1ccc(-c2ccccc2)cc1)C(=O)O; Gly(Nα-CH2CH2CONH2) = NC(=O)CCNCC(=O)O; Gly(N(CH2)3COOH) = O=C(O)CCCNCC(=O)O; NMeF = CN[C@@H](Cc1ccccc1)C(=O)O; NMeD = CN[C@@H](CC(=O)O)C(=O)O; Carboxymethyl = O=C(O)C*; NMeA = CN[C@@H](C)C(=O)O; Sar = CNCC(=O)O

What was measured:
Format in all cases: cell-based
Myostatin [1] = molecular target: T1, Myostatin (Homo sapiens, UniProt O14793); assay: Reporter gene assay for myostatin signaling in HepG2 cell line, Evaluation Procedure (1), myostatin inhibition; conditions: Method A: Myostatin 10 ng/mL; read-out: IC50 (Luciferase) Myostatin HepG2
T1 construct: active myostatin (also called mature myostatin) is a homodimer consisting of two C-terminal growth factor domains; purchased R&D systems 788-G8/CF
T1 sequence (O14793 267-375): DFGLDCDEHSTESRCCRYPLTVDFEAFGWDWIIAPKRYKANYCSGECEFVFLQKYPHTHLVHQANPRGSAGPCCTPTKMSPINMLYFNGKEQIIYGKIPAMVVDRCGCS
Procedure: (§1) In this Example, the in vitro myostatin inhibitory effects of the peptides synthesized in Examples 1 and 2 were evaluated using a reporter gene assay for myostatin signaling in HepG2 cell line.
(§2) HepG2 cell line (HB-8065, ATCC) cultured in EMEM (055-08975, WAKO Industries) containing 10% FBS (10270106, Gibco) and 50 µg/mL gentamicin (11980-14, Nacalai Tesque) was seeded in 96-well plates (167008, Thermo) at 2.0 × 10^4 cells/well and incubated in a CO2 incubator (37°C, 5% CO2) for 24 hours. The pGL3(CAGA)12-luc plasmid, namely a pGL3 vector (E1751, Promega) having a luciferase gene inserted downstream of a promoter sequence with 12 CAGA repeats attached, was added to the wells along with a transfection reagent (X-treamGENE9 DNA Transfection Reagent, 6365809001, Roche) at a concentration of 0.04 µg/well. The cell line was cultured in a CO2 incubator (37°C, 5% CO2) for 24 hours for transfection. The medium was discarded and replaced with EMEM containing 50 µL/well of 0.1% bovine serum albumin (A7030, Sigma) and 50 µg/mL gentamicin, and incubated in a CO2 incubator (37°C, 5% CO2) for 2 hours.
(§3) Myostatin (788-G8/C, R&D systems) or GDF-11 (1958-GD-G8/CF, R&D systems) was added so that the final concentrations were those listed in Table 5.
(§4) A 4-fold dilution series of various peptides synthesized in Examples 1 and 2 was added to achieve 0.006-100 nmol/L (myostatin inhibition) and 0.12-2000 nmol/L (GDF-11 inhibition). At this time, blank wells, in which neither myostatin, GDF-11, nor each peptide was added, were also prepared and incubated in a CO2 incubator (37°C, 5% CO2) for 20 to 24 hours.
(§5) The medium containing the cells was removed, and a mixture containing PBS (14190144, Thermo) and a chromogenic substrate One-Glo Luciferase Assay System (E6120, Promega) at a ratio of 1:1 was added to each well at 100 µL/well. This was stirred with a plate shaker for 5 min and transferred to a 384-well plate (3570, Corning) at a volume of 20 µL/well.
(§6) The plate was centrifuged at 1,000 × g for 1 min and the luminescence signal (700 nm luminescence) was measured using a plate reader (Envision 2104, PerkinElmer). Based on the measured values, IC50 values of the peptides were calculated using software (Prism 9, GraphPad). […]
(§7) In this Example, the in vitro myostatin inhibitory effects of the peptides synthesized in Examples 10 and 11 were evaluated according to the Evaluation Procedure (1) in Example 3.

Myostatin [2] = assay: as above; conditions: Method A; GDF-11 IC50 versus Myostatin IC50
Procedure: as §1, §2, §3, §4, §5, §6, §7

GDF-11 = molecular target: T2, GDF-11 (Homo sapiens, UniProt O95390); assay: Reporter gene assay for myostatin signaling in HepG2 cell line, Evaluation Procedure (1), GDF-11 inhibition; conditions: Method A: GDF-11 10 ng/mL; read-out: IC50 (Luciferase) GDF-11 HepG2
T2 construct: purchased R&D systems 1958-GD-G8/CF
T2 sequence (O95390 299-407): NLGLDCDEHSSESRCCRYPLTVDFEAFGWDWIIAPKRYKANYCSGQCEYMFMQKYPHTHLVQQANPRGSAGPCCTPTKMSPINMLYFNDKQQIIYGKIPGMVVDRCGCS
Procedure: as §1, §2, §3, §4, §5, §6, §7

Row | IC50 (Myostatin [1]) [nM] | IC50 (GDF-11) [nM] | Compound | Selectivity (Myostatin [2])
1 | 72.3 | 7380 | CC[C@H](C)[C@@H]1NC(=O)[C@H](Cc2ccccc2)N(C)C(=O)[C@H](Cc2ccc(O)cc2)NC(=O)[C@H](Cc2ccc(-c3ccncc3)cc2)NC(=O)CNC(=O)CN(CCCC(=O)O)C(=O)CSC[C@H](C(=O)O)NC(=O)[C@H](Cc2ccccc2)N(C)C(=O)[C@H](C)N(C)C(=O)[C@H](CC(C)C)NC(=O)[C@H](Cc2ccccc2)N(C)C(=O)[C@H](CCCNC(=N)N)NC(=O)[C@H](Cc2ccc(OCC(=O)O)cc2)NC(=O)[C@H](Cc2cccc(OCC(=O)O)c2)NC(=O)[C@H](C)N(C)C1=O [Myostatin_99_v91] ({CH2CO}-[Gly(N(CH2)3COOH)]G[Phe(4-(4-pyridyl))]Y[NMeF]I[NMeA][Phe(3-OCH2COOH)]Y(Carboxymethyl)R[NMeF]L[NMeA][NMeF][dC]-OH; thioether N-15) | 102
2 | 78.1 | 3880 | CC[C@H](C)[C@@H]1NC(=O)[C@H](Cc2ccccc2)N(C)C(=O)[C@H](Cc2ccc(O)cc2)NC(=O)[C@H](Cc2ccc(-c3ccncc3)cc2)NC(=O)CNC(=O)CN(CCCC(=O)O)C(=O)CSC[C@H](C(=O)O)NC(=O)[C@H](Cc2ccccc2)N(C)C(=O)[C@H](C)N(C)C(=O)[C@H](CC(C)C)NC(=O)[C@H](Cc2ccccc2)N(C)C(=O)[C@H](CCCNC(=N)N)NC(=O)[C@H](Cc2ccc(OCC(=O)O)cc2)NC(=O)[C@H](Cc2cccc(OCC(=O)O)c2)NC(=O)CN(C)C1=O [Myostatin_99_v92] ({CH2CO}-[Gly(N(CH2)3COOH)]G[Phe(4-(4-pyridyl))]Y[NMeF]I[Sar][Phe(3-OCH2COOH)]Y(Carboxymethyl)R[NMeF]L[NMeA][NMeF][dC]-OH; thioether N-15) | 50
3 | 88.8 | 26300 | CC[C@H](C)[C@@H]1NC(=O)[C@H](Cc2ccccc2)N(C)C(=O)[C@H](Cc2ccc(O)cc2)NC(=O)[C@H](Cc2ccc(-c3ccncc3)cc2)NC(=O)[C@H](C)NC(=O)[C@H](CC(=O)O)N(C)C(=O)CSC[C@H](C(=O)O)NC(=O)[C@H](Cc2ccccc2)N(C)C(=O)[C@H](C)N(C)C(=O)[C@H](CC(C)C)NC(=O)[C@H](Cc2ccccc2)N(C)C(=O)[C@H](CCCNC(=N)N)NC(=O)[C@H](Cc2ccc(OCC(=O)O)cc2)NC(=O)[C@H](Cc2cccc(OCC(=O)O)c2)NC(=O)CN(C)C1=O [Myostatin_99_v96] ({CH2CO}-[NMeD]A[Phe(4-(4-pyridyl))]Y[NMeF]I[Sar][Phe(3-OCH2COOH)]Y(Carboxymethyl)R[NMeF]L[NMeA][NMeF][dC]-OH; thioether N-15) | 296
4 | 2.8 | 466 | CC[C@H](C)[C@@H]1NC(=O)[C@H](Cc2ccccc2)N(C)C(=O)[C@H](Cc2ccc(O)cc2)NC(=O)[C@H](Cc2ccc(-c3ccncc3)cc2)NC(=O)[C@H](C)NC(=O)[C@H](C)NC(=O)CSC[C@H](C(=O)O)NC(=O)[C@H](Cc2ccccc2)N(C)C(=O)[C@H](C)N(C)C(=O)[C@H](CC(C)C)NC(=O)[C@H](Cc2ccccc2)N(C)C(=O)[C@H](CCCNC(=N)N)NC(=O)[C@H](Cc2ccc(OCC(=O)O)cc2)NC(=O)[C@H](Cc2cccc(OCC(=O)O)c2)NC(=O)CN(C)C1=O [Myostatin_99_v107] ({CH2CO}-AA[Phe(4-(4-pyridyl))]Y[NMeF]I[Sar][Phe(3-OCH2COOH)]Y(Carboxymethyl)R[NMeF]L[NMeA][NMeF][dC]-OH; thioether N-15) | 166

The remaining lines, values behind:

Row | Compound | IC50 (Myostatin [1]) [nM] | IC50 (GDF-11) [nM] | Selectivity (Myostatin [2])
5 | CC[C@H](C)[C@@H]1NC(=O)[C@H](Cc2ccccc2)N(C)C(=O)[C@H](Cc2ccc(O)cc2)NC(=O)[C@H](Cc2c[nH]c3ncccc23)NC(=O)[C@H](C)NC(=O)CN(CCC(N)=O)C(=O)CSC[C@H](C(=O)O)NC(=O)[C@H](Cc2ccccc2)N(C)C(=O)[C@H](C)N(C)C(=O)[C@H](CC(C)C)NC(=O)[C@H](Cc2ccccc2)N(C)C(=O)[C@H](CCCNC(=N)N)NC(=O)[C@H](Cc2ccc(C(=O)O)cc2)NC(=O)[C@H](Cc2ccccc2)NC(=O)CN(C)C1=O [Myostatin_99_v46] ({CH2CO}-[Gly(Nα-CH2CH2CONH2)]A[Trp(7-aza)]Y[NMeF]I[Sar]F[Phe(4-COOH)]R[NMeF]L[NMeA][NMeF][dC]-OH; thioether N-15) | 43.2 | 1540 | 36
6 | CC[C@H](C)[C@@H]1NC(=O)[C@H](Cc2ccccc2)N(C)C(=O)[C@H](Cc2ccc(O)cc2)NC(=O)[C@H](Cc2ccc(-c3ccncc3)cc2)NC(=O)[C@H](C)NC(=O)CN(CCCC(=O)O)C(=O)CSC[C@H](C(=O)O)NC(=O)[C@H](Cc2ccccc2)N(C)C(=O)[C@H](C)N(C)C(=O)[C@H](CC(C)C)NC(=O)[C@H](Cc2ccccc2)N(C)C(=O)[C@H](CCCNC(=N)N)NC(=O)[C@H](Cc2ccc(OCC(=O)O)cc2)NC(=O)[C@H](Cc2cccc(OCC(=O)O)c2)NC(=O)[C@H](C)N(C)C1=O [Myostatin_99_v83] ({CH2CO}-[Gly(N(CH2)3COOH)]A[Phe(4-(4-pyridyl))]Y[NMeF]I[NMeA][Phe(3-OCH2COOH)]Y(Carboxymethyl)R[NMeF]L[NMeA][NMeF][dC]-OH; thioether N-15) | 20.9 | 3010 | 144
7 | CC[C@H](C)[C@@H]1NC(=O)[C@H](Cc2ccccc2)N(C)C(=O)[C@H](Cc2ccc(O)cc2)NC(=O)[C@H](Cc2ccc(-c3ccncc3)cc2)NC(=O)[C@H](C)NC(=O)CN(CCCC(=O)O)C(=O)CSC[C@H](C(=O)O)NC(=O)[C@H](Cc2ccccc2)N(C)C(=O)[C@H](C)N(C)C(=O)[C@H](CC(C)C)NC(=O)[C@H](Cc2ccccc2)N(C)C(=O)[C@H](CCCNC(=N)N)NC(=O)[C@H](Cc2ccc(OCC(=O)O)cc2)NC(=O)[C@H](Cc2cccc(OCC(=O)O)c2)NC(=O)CN(C)C1=O [Myostatin_99_v84] ({CH2CO}-[Gly(N(CH2)3COOH)]A[Phe(4-(4-pyridyl))]Y[NMeF]I[Sar][Phe(3-OCH2COOH)]Y(Carboxymethyl)R[NMeF]L[NMeA][NMeF][dC]-OH; thioether N-15) | 27.3 | 3050 | 112
8 | CC[C@H](C)[C@@H]1NC(=O)[C@H](Cc2ccccc2)N(C)C(=O)[C@H](Cc2ccc(O)cc2)NC(=O)[C@H](Cc2ccc(-c3ccccc3)cc2)NC(=O)[C@H](C)NC(=O)CN(CCCC(=O)O)C(=O)CSC[C@H](C(=O)O)NC(=O)[C@H](Cc2ccccc2)N(C)C(=O)[C@H](C)N(C)C(=O)[C@H](CC(C)C)NC(=O)[C@H](Cc2ccccc2)N(C)C(=O)[C@H](CCCNC(=N)N)NC(=O)[C@H](Cc2ccc(OCC(=O)O)cc2)NC(=O)[C@H](Cc2cccc(OCC(=O)O)c2)NC(=O)[C@H](C)N(C)C1=O [Myostatin_99_v85] ({CH2CO}-[Gly(N(CH2)3COOH)]A[Bip]Y[NMeF]I[NMeA][Phe(3-OCH2COOH)]Y(Carboxymethyl)R[NMeF]L[NMeA][NMeF][dC]-OH; thioether N-15) | 13.5 | 3370 | 250
9 | CC[C@H](C)[C@@H]1NC(=O)[C@H](Cc2ccccc2)N(C)C(=O)[C@H](Cc2ccc(O)cc2)NC(=O)[C@H](Cc2ccc(-c3ccccc3)cc2)NC(=O)[C@H](C)NC(=O)CN(CCCC(=O)O)C(=O)CSC[C@H](C(=O)O)NC(=O)[C@H](Cc2ccccc2)N(C)C(=O)[C@H](C)N(C)C(=O)[C@H](CC(C)C)NC(=O)[C@H](Cc2ccccc2)N(C)C(=O)[C@H](CCCNC(=N)N)NC(=O)[C@H](Cc2ccc(OCC(=O)O)cc2)NC(=O)[C@H](Cc2cccc(OCC(=O)O)c2)NC(=O)CN(C)C1=O [Myostatin_99_v86] ({CH2CO}-[Gly(N(CH2)3COOH)]A[Bip]Y[NMeF]I[Sar][Phe(3-OCH2COOH)]Y(Carboxymethyl)R[NMeF]L[NMeA][NMeF][dC]-OH; thioether N-15) | 10.4 | 1650 | 159
